Among the data in BindingDB's records for doi:10.1074/jbc.M600168200 (Duke University Medical Center, 2006) are IC50 values, retold here.

Experiment [1] deals with Protein farnesyltransferase subunit beta/geranylgeranyltransferase type-1 subunit alpha (Homo sapiens, UniProt P49354+P49356). Briefly: In Vitro FTase/GGTase-1 Inhibition Assay. Conditions: pH 7.7; 30 °C. The protocol:
(§1) Compounds were tested as inhibitors of FTase or GGTase-1 in vitro using purified recombinant mammalian enzymes to catalyze the reactions between [3H] FPP or [3H]GGPP, and recombinant protein substrates. Incorporation of radiolabeled isoprenoid into Ras protein substrate was quantitated by precipitation of total protein with acid and scintillation counting. The inhibitory activity of the compounds is reported as an IC50 value, the concentration of inhibitor required to reduce radiolabel incorporation by 50% compared with an uninhibited control experiment.

The target of experiment [2] is Geranylgeranyl transferase type-1 subunit beta [A2V]/Protein farnesyltransferase/geranylgeranyltransferase type-1 subunit alpha (Homo sapiens, UniProt P49354+P53609, A2V). Briefly: In Vitro FTase/GGTase-1 Inhibition Assay. Conditions: pH 7.7; 30 °C. The protocol: as §1
Sequence of Geranylgeranyl transferase type-1 subunit beta [A2V]/Protein farnesyltransferase/geranylgeranyltransferase type-1 subunit alpha (P53609 whole entry A2V, other chains not shown): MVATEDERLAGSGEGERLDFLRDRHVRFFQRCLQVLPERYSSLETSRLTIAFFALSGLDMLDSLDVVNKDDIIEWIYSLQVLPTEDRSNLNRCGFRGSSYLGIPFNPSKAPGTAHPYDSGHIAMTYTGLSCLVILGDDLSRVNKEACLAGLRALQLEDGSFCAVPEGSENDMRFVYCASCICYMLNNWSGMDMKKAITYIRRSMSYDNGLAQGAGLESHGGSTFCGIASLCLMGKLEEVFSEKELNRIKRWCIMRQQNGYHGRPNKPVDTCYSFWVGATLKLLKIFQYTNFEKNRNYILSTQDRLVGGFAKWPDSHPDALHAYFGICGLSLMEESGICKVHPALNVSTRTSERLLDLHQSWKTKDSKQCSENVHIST

A value given as a limit tells only on which side of the number the result lay.

For `CSCCc1c(-c2cccnc2)nn(-c2ccc(Cl)c(Cl)c2)c1OCCCC(=O)N[C@@H](Cc1ccccc1)C(N)=O` [N-[(S)-1-carbamoyl-2-phenylethyl]-4-[2-(3,4-di-chlorophenyl)-4-(2-methylsulfanylethyl)-5-pyridin-3-yl-2-H-pyrazol-3-yloxy]butyramide], the values for the IC50 in experiment [1] and in experiment [2] were above 2000 nM and 8.24 nM, respectively.
